Data as given in paper PMC7305291, “Cryo-EM snapshots of mycobacterial arabinosyltransferase complex EmbB2-AcpM2” (Protein & Cell, 2020).
Changes are numbered by the printed parent chain.

Assays:
[1] = target: T1, EmbB2-AcpM2 complex (Msm EmbB) (Mycolicibacterium smegmatis, UniProt A0R614); assay: microscale thermophoresis (MST); format: binding
T1 construct: gene MSMEG_6389; full-length EmbB, C-terminal 10xHis tag, pMV261 vector, homologous overexpression in M. smegmatis, detergent purified then amphipol exchanged; homodimer with endogenous co-purified AcpM on each protomer; with Meromycolate extension acyl carrier protein
T1 sequence (A0R614 1-1082): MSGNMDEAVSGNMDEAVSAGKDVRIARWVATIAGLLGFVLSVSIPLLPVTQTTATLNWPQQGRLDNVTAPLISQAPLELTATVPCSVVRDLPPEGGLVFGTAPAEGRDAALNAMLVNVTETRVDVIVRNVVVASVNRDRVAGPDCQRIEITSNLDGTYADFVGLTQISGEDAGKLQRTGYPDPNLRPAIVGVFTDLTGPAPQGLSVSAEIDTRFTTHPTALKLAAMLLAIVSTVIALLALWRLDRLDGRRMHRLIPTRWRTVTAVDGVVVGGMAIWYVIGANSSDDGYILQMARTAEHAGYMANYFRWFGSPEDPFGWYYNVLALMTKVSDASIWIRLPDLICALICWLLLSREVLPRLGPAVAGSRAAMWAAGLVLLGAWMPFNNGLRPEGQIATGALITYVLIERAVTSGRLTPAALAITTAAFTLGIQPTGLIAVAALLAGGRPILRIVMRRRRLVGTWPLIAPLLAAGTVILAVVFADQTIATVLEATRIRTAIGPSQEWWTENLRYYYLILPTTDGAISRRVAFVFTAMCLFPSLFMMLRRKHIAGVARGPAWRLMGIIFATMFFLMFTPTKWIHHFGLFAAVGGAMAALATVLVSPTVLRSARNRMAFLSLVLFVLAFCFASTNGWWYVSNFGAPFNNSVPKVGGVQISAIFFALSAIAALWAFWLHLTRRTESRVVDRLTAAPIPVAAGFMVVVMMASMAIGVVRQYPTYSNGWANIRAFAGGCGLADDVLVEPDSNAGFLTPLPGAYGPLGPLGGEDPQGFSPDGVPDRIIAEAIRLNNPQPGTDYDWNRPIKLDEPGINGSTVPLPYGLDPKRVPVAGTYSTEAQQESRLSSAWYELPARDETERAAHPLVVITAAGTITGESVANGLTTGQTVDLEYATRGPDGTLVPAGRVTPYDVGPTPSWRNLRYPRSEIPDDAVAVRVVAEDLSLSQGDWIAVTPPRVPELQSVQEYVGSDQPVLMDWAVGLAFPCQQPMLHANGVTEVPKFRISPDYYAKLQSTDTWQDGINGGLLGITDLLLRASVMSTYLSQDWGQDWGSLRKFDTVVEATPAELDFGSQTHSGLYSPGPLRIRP
T1 sequence (A0R0B3 1-99 partner): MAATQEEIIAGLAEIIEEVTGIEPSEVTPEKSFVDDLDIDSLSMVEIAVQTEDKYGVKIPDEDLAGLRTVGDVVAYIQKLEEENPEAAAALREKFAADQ

[2] = target: T1, EmbB2-AcpM2 complex (Msm EmbB); assay: cryo-EM structure of the complex, […] Å; mass spectrometry of co-purified lipid; format: binding; conditions: endogenous donor substrate, bound in one protomer of the asymmetric active state
[3] = target: the molecule itself; assay: cryo-EM structure; detergent purified, amphipol exchanged EmbB with co-purified endogenous AcpM; single-particle analysis; two 3D classes refined: symmetric resting state (3.6 A) and asymmetric DPA-bound active state (3.5 A)

CC[C@@H](CO)NCCN[C@@H](CC)CO [ethambutol]
Kd [1]: 1580 nM

CC(C)=CCC/C(C)=C/CC/C(C)=C\CC/C(C)=C\CC/C(C)=C\CC/C(C)=C\CC/C(C)=C\CC/C(C)=C\CC/C(C)=C\CC/C(C)=C\COP(=O)(O)O[C@@H]1O[C@H](CO)[C@@H](O)[C@@H]1O [decaprenyl-phosphate-arabinose]
cryo-EM structure of the complex, 3.5 Å; mass spectrometry of co-purified lipid [2]: The whole of the DPA fits into this part of the map

B1: Mycobacterium smegmatis arabinosyltransferase EmbB (MSMEG_6389) (enzyme, UniProt Q50395 1-1082, looked up)
chain: T1 sequence (A0R614 1-1082) with M453I, V459D, N508K, I579T
notes: arabinosyltransferase EmbB of Mycobacterium smegmatis, locus MSMEG_6389; 69.6% identical to Mtb EmbB (Rv_3795); Seen as a homodimer by cryo-EM, with one AcpM on each protomer (EmbB2-AcpM2); also called Msm EmbB; EmbB protomer
stoichiometry N [3]: 2
